Measured values reported in patent US20230312473A1, “PROCESS FOR THE PREPARATION OF BIHETEROARYL COMPOUNDS AND CRYSTAL FORMS THEREOF” (Genentech, Inc., priority 2020, published 2023).
Where two headings read alike, the source gives them in different places.

Test: Solubility of compound 1 in the solvent under evaluation at 22° C. and 65° C. (crystallization study)
Type: physicochemical
Protocol: Crystalline compound 1 was evaluated. Crystallization study procedures were done based on the solubility of compound 1 in the solvent under evaluation as follows.
The results are presented below in Table 10 where: * refers to compound 1 prepared as described above; and ** refers to compound 1 prepared as described above and further incubated at 100% relative humidity at 22° C. for 17 days.

Compound: Nc1ncc(-c2cc(N3C[C@@H]4C[C@H]3CO4)nc(N3CCC(F)(F)C3)n2)cc1OC(F)F [Compound 1, 5-(6-((1S,4S)-2-oxa-5-azabicyclo[2.2.1]heptan-5-yl)-2-(3,3-difluoropyrrolidin-1-yl)pyrimidin-4-yl)-3-(difluoromethoxy)pyridin-2-amine]
- solubility (80% water in acetonitrile, 22 °C, aqueous with cosolvent or surfactant or cyclodextrin, thermodynamic from solid, solvent: 80% water in acetonitrile, read-out: Solubility at 22° C.): < 50 mg/mL
- solubility (80% water in acetonitrile, 65 °C, aqueous with cosolvent or surfactant or cyclodextrin, solvent: 80% water in acetonitrile, read-out: Solubility at 65° C.): < 50 mg/mL
- solubility (Acetic acid, 22 °C, organic solvent or mixture, thermodynamic from solid, solvent: Acetic acid, read-out: Solubility at 22° C.): > 100 mg/mL
- solubility (Acetonitrile, 22 °C, organic solvent or mixture, thermodynamic from solid, solvent: Acetonitrile, read-out: Solubility at 22° C.): < 50 mg/mL
- solubility (Acetonitrile, 65 °C, organic solvent or mixture, solvent: Acetonitrile, read-out: Solubility at 65° C.): > 50 mg/mL
- solubility (Chloroform, 22 °C, organic solvent or mixture, thermodynamic from solid, solvent: Chloroform, read-out: Solubility at 22° C.): < 50 mg/mL
- solubility (Chloroform, 65 °C, organic solvent or mixture, solvent: Chloroform, read-out: Solubility at 65° C.): > 50 mg/mL
- solubility (DMA, 22 °C, organic solvent or mixture, thermodynamic from solid, solvent: DMA, read-out: Solubility at 22° C.): > 200 mg/mL
- solubility (DMF, 22 °C, organic solvent or mixture, thermodynamic from solid, solvent: DMF, read-out: Solubility at 22° C.): > 100 mg/mL
- solubility (DMSO, 22 °C, organic solvent or mixture, thermodynamic from solid, solvent: DMSO, read-out: Solubility at 22° C.): > 100 mg/mL
- solubility (Dichloromethane, 22 °C, organic solvent or mixture, thermodynamic from solid, solvent: Dichloromethane, read-out: Solubility at 22° C.): < 50 mg/mL
- solubility (Dichloromethane, 65 °C, organic solvent or mixture, solvent: Dichloromethane, read-out: Solubility at 65° C.): > 50 mg/mL
- solubility (Diisopropylamine, 22 °C, organic solvent or mixture, thermodynamic from solid, solvent: Diisopropylamine, read-out: Solubility at 22° C.): < 50 mg/mL
- solubility (Diisopropylamine, 65 °C, organic solvent or mixture, solvent: Diisopropylamine, read-out: Solubility at 65° C.): < 50 mg/mL
- solubility (Dimethyl carbonate, 22 °C, organic solvent or mixture, thermodynamic from solid, solvent: Dimethyl carbonate, read-out: Solubility at 22° C.): < 50 mg/mL
- solubility (Dimethyl carbonate, 65 °C, organic solvent or mixture, solvent: Dimethyl carbonate, read-out: Solubility at 65° C.): > 50 mg/mL
- solubility (Dioxane, 22 °C, organic solvent or mixture, thermodynamic from solid, solvent: Dioxane, read-out: Solubility at 22° C.): > 50 mg/mL
- solubility (Ethyl acetate, 22 °C, organic solvent or mixture, thermodynamic from solid, solvent: Ethyl acetate, read-out: Solubility at 22° C.): < 50 mg/mL
- solubility (Ethyl acetate, 65 °C, organic solvent or mixture, solvent: Ethyl acetate, read-out: Solubility at 65° C.): > 50 mg/mL
- solubility (Isopropyl acetate, 22 °C, organic solvent or mixture, thermodynamic from solid, solvent: Isopropyl acetate, read-out: Solubility at 22° C.): < 50 mg/mL
- solubility (Isopropyl acetate, 65 °C, organic solvent or mixture, solvent: Isopropyl acetate, read-out: Solubility at 65° C.): < 50 mg/mL
- solubility (MEK, 22 °C, organic solvent or mixture, thermodynamic from solid, solvent: MEK, read-out: Solubility at 22° C.): < 50 mg/mL
- solubility (MEK, 65 °C, organic solvent or mixture, thermodynamic from solid, solvent: MEK, read-out: Solubility at 65° C.): < 50 mg/mL
- solubility (MIBK, 22 °C, organic solvent or mixture, thermodynamic from solid, solvent: MIBK, read-out: Solubility at 22° C.): < 50 mg/mL
- solubility (MIBK, 65 °C, organic solvent or mixture, thermodynamic from solid, solvent: MIBK, read-out: Solubility at 65° C.): < 50 mg/mL
- solubility (MTBE, 22 °C, organic solvent or mixture, thermodynamic from solid, solvent: MTBE, read-out: Solubility at 22° C.): < 50 mg/mL
- solubility (MTBE, 65 °C, organic solvent or mixture, thermodynamic from solid, solvent: MTBE, read-out: Solubility at 65° C.): < 50 mg/mL
- solubility (Methanol, 22 °C, organic solvent or mixture, thermodynamic from solid, solvent: Methanol, read-out: Solubility at 22° C.): < 50 mg/mL
- solubility (Methanol, 65 °C, organic solvent or mixture, thermodynamic from solid, solvent: Methanol, read-out: Solubility at 65° C.): < 50 mg/mL
- solubility (NMP, 22 °C, organic solvent or mixture, thermodynamic from solid, solvent: NMP, read-out: Solubility at 22° C.): > 200 mg/mL
- solubility (THF, 22 °C, organic solvent or mixture, thermodynamic from solid, solvent: THF, read-out: Solubility at 22° C.): > 50 mg/mL
- solubility (Toluene, 22 °C, organic solvent or mixture, thermodynamic from solid, solvent: Toluene, read-out: Solubility at 22° C.): < 50 mg/mL
- solubility (Toluene, 65 °C, organic solvent or mixture, thermodynamic from solid, solvent: Toluene, read-out: Solubility at 65° C.): < 50 mg/mL
- solubility (acetone, 22 °C, organic solvent or mixture, thermodynamic from solid, solvent: Acetone, read-out: Solubility at 22° C.): < 50 mg/mL
- solubility (acetone, 65 °C, organic solvent or mixture, solvent: Acetone, read-out: Solubility at 65° C.): > 50 mg/mL
- solubility (butanol, 22 °C, organic solvent or mixture, thermodynamic from solid, solvent: Butanol, read-out: Solubility at 22° C.): < 50 mg/mL
- solubility (butanol, 65 °C, organic solvent or mixture, solvent: Butanol, read-out: Solubility at 65° C.): < 50 mg/mL
- solubility (ethanol, 22 °C, organic solvent or mixture, thermodynamic from solid, solvent: Ethanol, read-out: Solubility at 22° C.): < 50 mg/mL
- solubility (ethanol, 65 °C, organic solvent or mixture, solvent: Ethanol, read-out: Solubility at 65° C.): < 50 mg/mL
- solubility (i-butanol, 22 °C, organic solvent or mixture, thermodynamic from solid, solvent: i-Butanol, read-out: Solubility at 22° C.): < 50 mg/mL
- solubility (i-butanol, 65 °C, organic solvent or mixture, thermodynamic from solid, solvent: i-Butanol, read-out: Solubility at 65° C.): < 50 mg/mL
- solubility (isopropanol, 22 °C, organic solvent or mixture, thermodynamic from solid, solvent: Isopropanol, read-out: Solubility at 22° C.): < 50 mg/mL
- solubility (isopropanol, 65 °C, organic solvent or mixture, solvent: Isopropanol, read-out: Solubility at 65° C.): < 50 mg/mL
- solubility (n-Heptane, 22 °C, organic solvent or mixture, thermodynamic from solid, solvent: n-Heptane, read-out: Solubility at 22° C.): < 50 mg/mL
- solubility (n-Heptane, 65 °C, organic solvent or mixture, thermodynamic from solid, solvent: n-Heptane, read-out: Solubility at 65° C.): < 50 mg/mL
- solubility (nitromethane, 22 °C, organic solvent or mixture, thermodynamic from solid, solvent: Nitromethane, read-out: Solubility at 22° C.): < 50 mg/mL
- solubility (nitromethane, 65 °C, organic solvent or mixture, thermodynamic from solid, solvent: Nitromethane, read-out: Solubility at 65° C.): > 50 mg/mL
- solubility (propanol, 22 °C, organic solvent or mixture, thermodynamic from solid, solvent: Propanol, read-out: Solubility at 22° C.): < 50 mg/mL
- solubility (propanol, 65 °C, organic solvent or mixture, thermodynamic from solid, solvent: Propanol, read-out: Solubility at 65° C.): < 50 mg/mL
- solubility (s-butanol, 22 °C, organic solvent or mixture, thermodynamic from solid, solvent: s-butanol, read-out: Solubility at 22° C.): < 50 mg/mL
- solubility (s-butanol, 65 °C, organic solvent or mixture, thermodynamic from solid, solvent: s-butanol, read-out: Solubility at 65° C.): < 50 mg/mL
- solubility (water, 22 °C, water, thermodynamic from solid, solvent: Water, read-out: Solubility at 22° C.): < 50 mg/mL
- solubility (water, 65 °C, water, thermodynamic from solid, solvent: Water, read-out: Solubility at 65° C.): < 50 mg/mL
